Results: US8202696B2, “Means for use in treating diseases correlated with or caused by non-physiological levels of microtubule-associated PP2Ac” (Max-Planck-Gessellschaft zur Forderung der Wissenschaften …, priority 2002, dated 2012)
“Also recorded” adds a separate entry of the source. Values belong to the molecule of their own block, whether it stands above or below them.

What was measured:
[1] = tested on: PP2A; experiment: hFused phosphorylation in vitro, cytosol incubated with or without fostriecin, Western blot; type: biochemical; details: fostriecin 500 nM, 4 h, 30° C.
Protocol: 8×10^5 cells were transfected with hFused-V5 (aa 1-1335) using Qiagen Polyfect transfection reagent according to the manufacturer's instructions. Cytosol of hFused-V5 overexpressing cells was incubated for 4 h in the presence or absence of fostriecin (500 nM) at 30° C. Proteins (200 μg protein per lane) were separated on a 6% SDS-gel, blotted on PVDF-membranes and incubated with anti-V5-antibody (1:3000). Secondary HRP-antimouse-antibody was diluted 1:2000.
Fostriecin is a highly specific inhibitor of PP2A activity.
Cytosol of V5-tagged hFused-overexpressing cells was incubated for 4 h in the absence (line1) and presence (line2) of fostriecin at 30° C. Subsequently proteins were separated on an SDS-Page, blotted and incubated with an anti-V5 antibody.

[2] = tested on: Gli3; experiment: Localization of overexpressed GFP-tagged Gli3 in HeLa cells; type: cell-based; details: GFP-Gli3 plus B-Box overexpressing HeLa cells
Protocol: 1×10^5 HELA cells per well of a 6-well plate were transfected with Qiagen Polyfect transfection reagent according to the manufacturer's instructions. The ratio of the amount of DNA to the amount of polyfect transfection reagent was 3 μg DNA/10 μl Polyfect. Constructs used for expression in HELA were the following: GFP-GLI3 (aa 18-1549), GLI3-GFP (aa 1-1522), MYC-GLI3 (aa 18-1596), FLAG-GLI3 (aa18-1596), MYC-B-BOX1 (aa 110-167 of the MID1 protein), ALPHA4-V5 (aa 1-339). 24 h after transfection immunofluorescence was performed. GFP-constructs were treated as described in Schweiger et al., 1999. Immunofluorescence with MYC-tagged and FLAG-tagged constructs was done according to Trockenbacher et al., 2001. FLAG-tagged constructs were detected with anti-FLAG-antibody diluted 1:500, the secondary antibody FITC-antimouse was diluted 1:1000. For MYC-tagged constructs anti-MYC-antibody 1:300 and CY3-antirabbit 1:1000 were used. […]
Overexpressed Gli3 is predominantly localized in the nucleus (FIG. 10, top left).

[3] = tested on: proteasome; experiment: Polyubiquitinated proteins in the MID1 immune complex, COS7 cells; type: cell-based; details: MID1-myc, anti-myc precipitate
Protocol: Immunoprecipitation, western blotting and immunofluorescence. For COS7 cells, we lysed in IP1 buffer 8×10^6 cells transfected with pBudCE4 vector carrying the respective cDNAs. After preclearing the lysate with 50 μl protein A-agarose (slurry), we incubated supernatants with 2 μg anti-V5 overnight at 4° C. and then for 2 h with 75 μl (slurry) protein A-agarose. After three washes in IP1 buffer, we eluted the proteins with 1× Laemmli buffer at 95° C. MID1-V5 expression was optimal 48 h after doxycyclin removal from 293 tet-off cell lines. We then lysed cells in IP1 buffer and carried out immunoprecipitation with 2 μg anti-V5. We boiled proteins in 1×SDS-PAGE buffer, separated them on 10% and 12% SDS gels, blotted on PVDF membranes (Roche) and blocked and incubated with the respective primary antibody according to the manufacturer's instructions. Because several RING-finger proteins interact with target proteins and thereby elicit their ubiquitin-dependent degradation^8-11, we examined interaction of MID1 with polyubiquitinated proteins. We transfected COS7 cells either with MID1 cDNA or, as a control, with cDNA encoding protein kinase C (PKC), each tagged with a C-terminal V5 epitope or an empty vector, respectively. We treated the cells with 25 μM of LLnL, a proteasome inhibitor, 24 h after transfection to enrich for ubiquitinated proteins. […]

[4] = biological target: T1, α4 (Homo sapiens, UniProt P78318); experiment: Yeast two-hybrid interaction of MID1 constructs with α4; type: binding
T1 construct: expressed in transfected cells; host or cells: L40 yeast strain
T1 sequence (P78318 1-339): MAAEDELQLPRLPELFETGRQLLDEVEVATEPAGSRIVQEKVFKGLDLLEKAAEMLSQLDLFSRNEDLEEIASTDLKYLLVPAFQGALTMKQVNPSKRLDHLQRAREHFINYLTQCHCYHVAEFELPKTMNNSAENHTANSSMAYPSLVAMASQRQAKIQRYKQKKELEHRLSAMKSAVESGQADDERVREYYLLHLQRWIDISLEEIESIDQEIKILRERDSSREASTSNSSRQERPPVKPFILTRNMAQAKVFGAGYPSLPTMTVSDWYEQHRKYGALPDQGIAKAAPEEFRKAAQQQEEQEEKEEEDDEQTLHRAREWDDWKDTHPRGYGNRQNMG
Protocol: Yeast two-hybrid screening. For yeast two-hybrid screening, we cloned full-length MID1 cDNA into the pBTM116 vector. We then cotransfected this with a human fetal brain cDNA Matchmaker library in the pGAD10 vector (Clontech) into the L40 yeast strain. We plated the transformants on synthetic medium lacking histidine, leucine and tryptophan (his^− leu^− trp^−) and containing 3-amino-1,2,4, triazole, and incubated the plates at 30° C. for 5 days. We assayed his-positive colonies for β-galactosidase activity with a filter assay^47. We isolated plasmid DNA from β-galactosidase-positive clones and cotransfected this again into L40 yeast with MID1-pBTM116 and controls. We selected plasmids that produced growth on selective plates only in combination with MID1-pBTM116, which were assumed to code for MID1 interactors, and sequenced them.
Activity of β-galactosidase in yeast liquid cultures. We assayed cells for β-galactosidase activity by the o-nitrophenyl-β-D-galactopyranoside (ONPG) method^47.
MID1 is a multidomain protein harboring a RING finger, two B-boxes, a coiled-coil region, a fibronectin type III domain and a B30.2 domain^3—all of which are candidate regions for specific protein-protein interactions. To clarify which domain specifically binds α4, we tested several deletion mutants of MID1 for interaction with α4 in the yeast two-hybrid system. […]

[5] = tested on: tau protein; experiment: Tau-1 and pan-Tau immunofluorescence in transfected postnatal sympathetic neurons; type: cell-based, rat; details: compared to non-transfected neurons = 100%, two days after transfection
Protocol: Peripheral sympathetic neurons were obtained from postnatal day 1-3 rats. […] Following mechanical dissociation the cell suspension was filtered through a 40 μm nylon mesh and seeded at 6 SCGs per well into uncoated Falcon dishes for preplating purposes. After 4 hours neurons were transferred into glass floor dishes (Willco Wells B.V., gwst 3522, 3.8 cm^2 area/dish) coated with poly-D-lysine/laminin. Neurons were maintained in RPMI medium containing antibiotics, N2 additive (Invitrogen) and 100 ng/ml nerve growth factor (NGF; Sigma) at 37° C. in a humidified atmosphere with 5% CO2.
Neurons were transfected 2 hours after seeding applying the biolistic approach. This method uses a hand held gun to bombard dissociated neurons at high velocity with micron-size gold particles loaded with DNA. The coating of gold particles with DNA was achieved using a modification of the manufacturer's instructions (Bio-Rad Laboratories). For preparation of 35 cartridges 25 mg gold particles (1.6 μm diameter) were suspended in 50 μl of 0.05 M spermidine. After vortexing and sonication for 5 seconds, 50 μg plasmid DNA dissolved in 50 μl TE buffer was added (for co-transfection experiments, 80 μg were used, i.e., 40 μg Plasmid I+40 μg Plasmid 2). The amount of gold particles and DNA corresponds to a microcarrier loading quantity (MLQ) of about 0.7 (mg/cartridge) and to a DNA loading ratio (DLR) of 2 (μg/mg) for single transfection experiments. DNA, spermidine and gold were then mixed for 5 sec in a variable speed vortexer. At low vortexing speed, 50 μl 1 M CaCl2 was added dropwise to the mixture for association of DNA with the gold particles followed by precipitation for 10 min at room temperature. The supernatant was removed and the pellet rinsed with 800 μl of 100% ethanol. Washing was repeated two times with centrifugation steps at 3000 g between each wash. […]
A fully motorized Zeiss Axiovert 100M microscope equipped for inverted fluorescence was used for visualization of fluorescent neurons. […]

Molecule: C[C@@](O)(/C=C/[C@H]1CC=CC(=O)O1)[C@@H](C[C@@H](O)\C=C/C=C\C=C\CO)OP(=O)(O)O [fostriecin]
- Phosphorylated hFused-band on Western blot [1]: clear enrichment of the phosphorylated hFused-band
- Ratio between phosphorylated and dephosphorylated hFused-form ([1]; cytosol of V5-tagged hFused-overexpressing cells, control without fostriecin 1.8×): 18 ×
- Gli3 localization in presence of B-Box overexpression [2]: reverse the observed effect

Molecule: CC(=O)N[C@@H](CSC(=O)[C@]1([C@@H](O)C(C)C)NC(=O)[C@H](C)[C@@H]1O)C(=O)O [lactacystin]
- High-molecular weight proteins in MID1-myc-containing precipitates [3]: enrichment of high-molecular weight proteins

- Interaction with α4 [4]: binds α4
Molecule: MID2: protein highly similar in amino acid sequence (83%) to MID1 (PTTAMSSERIACQFCEQDPPRDAVKTCITCEVSYCDRCLRATHPNKKPFTSHRLVEPV; listed as Homo sapiens)

Molecule: inactive mutated form of the B-BOX1: Bbox1 with exchange of alanine 130 to threonine, abolishes association with α4 (ANTMTSAEKVLCQFCDQDPAQDTVKTCVTCEVSYCDECLKATHPNKKPFTGHRLIEPI) [reference compound]
- Tau-1 immunoreactivity (dephosphorylated tau) [5]: does not show this effect; also recorded: do not exhibit different fluorescent levels
